Where two headings read alike, the source gives them in different places.
Tested on: MLKL phosphorylation in HT29-L23 human colorectal adenocarcinoma cells
Experiment: MLKL phosphorylation high-content assay
Type: cell-based
[1] = Homo sapiens, 6 h, HT29-L23 cells, necroptosis induced with TNFα, SMAC mimetic and Z-VAD, 6 h, maximal inhibition defined by Nec1s, read-out: pMLKL IC50
[2] = HT29-L23 cells, necroptosis induced with TNFα, SMAC mimetic and Z-VAD, 6 h, maximal inhibition defined by Nec1s, read-out: pMLKL IC50
[3] = Homo sapiens, Table 23, representative compounds from WO2018/148626, read-out: pMLKL IC50

Compound | IC50 [1] [nM] | IC50 [2] [nM] | also measured
Nc1nc2cc(-c3cc(C(=O)NCC(F)(F)C(O)c4ccc(F)cc4)c(Cl)cc3Cl)ccn2n1 (racemic) [Example 127] | 9.7 |  | 
Cc1ccc(-c2ccn3nc(N)nc3c2)c(F)c1C(=O)NCC(F)(F)C(C)(O)c1ccc(F)cc1 (single isomer, unassigned) [Example 61, 3-(2-amino-[1,2,4]triazolo[1,5-a]pyridin-7-yl)-N-(2,2-difluoro-3-(4-fluorophenyl)-3-hydroxybutyl)-2-fluoro-6-methylbenzamide] | 0.8 |  | 
Cc1ccc(-c2ccn3nc(N)nc3c2)c(F)c1C(=O)NCC(F)(F)C(C)(O)c1ccc(F)cc1 (single isomer, unassigned) [Example 62, 3-(2-amino-[1,2,4]triazolo[1,5-a]pyridin-7-yl)-N-(2,2-difluoro-3-(4-fluorophenyl)-3-hydroxybutyl)-2-fluoro-6-methylbenzamide] |  | 1.1 | 
Cc1c(C(=O)NCC(F)(F)C(O)c2ccc(Cl)cc2)cc(-c2ccn3nc(N)nc3c2)c(F)c1F (single isomer, unassigned) [Example 104, 5-(2-amino-[1,2,4]triazolo[1,5-a]pyridin-7-yl)-N-(3-(4-chlorophenyl)-2,2-difluoro-3-hydroxypropyl)-3,4-difluoro-2-methylbenzamide] | 0.3 |  | 
Cc1c(C(=O)NCC(F)(F)C(O)c2ccc(Cl)cc2)cc(-c2ccn3nc(N)nc3c2)c(F)c1F (single isomer, unassigned) [Example 105, 5-(2-amino-[1,2,4]triazolo[1,5-a]pyridin-7-yl)-N-(3-(4-chlorophenyl)-2,2-difluoro-3-hydroxypropyl)-3,4-difluoro-2-methylbenzamide] |  | 0.5 | 
Cc1c(C(=O)NCC(F)(F)C(O)c2ccc(F)cc2)cc(-c2ccn3nc(N)nc3c2)c(F)c1F (single isomer, unassigned) [Example 106, 5-(2-amino-[1,2,4]triazolo[1,5-a]pyridin-7-yl)-N-(2,2-difluoro-3-(4-fluorophenyl)-3-hydroxypropyl)-3,4-difluoro-2-methylbenzamide] | 0.5 |  | 
Cc1c(C(=O)NCC(F)(F)C(O)c2ccc(F)cc2)cc(-c2ccn3nc(N)nc3c2)c(F)c1F (single isomer, unassigned) [Example 107, 5-(2-amino-[1,2,4]triazolo[1,5-a]pyridin-7-yl)-N-(2,2-difluoro-3-(4-fluorophenyl)-3-hydroxypropyl)-3,4-difluoro-2-methylbenzamide] |  | 0.4 | 
CCc1ccc(-c2ccn3nc(N)nc3c2)c(F)c1C(=O)NCC(F)(F)C(O)c1ccc(F)cc1 (single isomer, unassigned) [Example 120, 3-(2-amino-[1,2,4]triazolo[1,5-a]pyridin-7-yl)-N-(2,2-difluoro-3-(4-fluorophenyl)-3-hydroxypropyl)-6-ethyl-2-fluorobenzamide] | 1.4 |  | 
COc1ccc(-c2ccn3nc(N)nc3c2)c(F)c1C(=O)NCC(F)(F)C(O)c1ccc(F)cc1 (single isomer, unassigned) [Example 124, 3-(2-amino-[1,2,4]triazolo[1,5-a]pyridin-7-yl)-N-(2,2-difluoro-3-(4-fluorophenyl)-3-hydroxypropyl)-2-fluoro-6-methoxybenzamide] |  | 1.4 | 
COc1ccc(-c2ccn3nc(N)nc3c2)c(F)c1C(=O)NCC(F)(F)C(O)c1ccc(F)cc1 (single isomer, unassigned) [Example 125, 3-(2-amino-[1,2,4]triazolo[1,5-a]pyridin-7-yl)-N-(2,2-difluoro-3-(4-fluorophenyl)-3-hydroxypropyl)-2-fluoro-6-methoxybenzamide] |  | 2.9 | 
COc1ccc(C(O)C(F)(F)CNC(=O)c2c(Cl)ccc(-c3ccn4nc(N)nc4c3)c2F)cc1 (single isomer, unassigned) [Example 184, 3-(2-amino-[1,2,4]triazolo[1,5-a]pyridin-7-yl)-6-chloro-N-(2,2-difluoro-3-hydroxy-3-(4-methoxyphenyl)propyl)-2-fluorobenzamide] |  |  | IC50 (Homo sapiens, 6 h, read-out: pMLKL IC50, HT29-L23 cells, necroptosis induced with TNFα, SMAC mimetic and Z-VAD, 6 h, maximal inhibition defined by Nec1s): 0.4 nM
[2H]C([2H])([2H])C(O)(c1ccc(F)cc1)C(F)CNC(=O)c1c(C(F)F)ccc(-c2ccn3nc(N)nc3c2)c1F (single isomer, unassigned) [Example 194, 3-(2-amino-[1,2,4]triazolo[1,5-a]pyridin-7-yl)-6-(difluoromethyl)-2-fluoro-N-(2-fluoro-3-(4-fluorophenyl)-3-hydroxybutyl-4,4,4-d3)benzamide] |  | 8.8 | 
[2H]C([2H])([2H])C(O)(c1ccc(F)cc1)C(F)CNC(=O)c1c(C(F)F)ccc(-c2ccn3nc(N)nc3c2)c1F (single isomer, unassigned) [Example 197, 3-(2-amino-[1,2,4]triazolo[1,5-a]pyridin-7-yl)-6-(difluoromethyl)-2-fluoro-N-(2-fluoro-3-(4-fluorophenyl)-3-hydroxybutyl-4,4,4-d3)benzamide] |  | 0.3 | 
[2H]C([2H])([2H])C(O)(c1ccc(F)cc1)C(F)CNC(=O)c1c(Cl)ccc(-c2ccn3nc(N)nc3c2)c1F (single isomer, unassigned) [Example 237, 3-(2-amino-[1,2,4]triazolo[1,5-a]pyridin-7-yl)-6-chloro-2-fluoro-N-(2-fluoro-3-(4-fluorophenyl)-3-hydroxybutyl-4,4,4-d3)benzamide] |  | 86 | 
[2H]C([2H])([2H])C(O)(c1ccc(F)cc1)C(F)CNC(=O)c1c(Cl)ccc(-c2ccn3nc(N)nc3c2)c1F (single isomer, unassigned) [Example 240, 3-(2-amino-[1,2,4]triazolo[1,5-a]pyridin-7-yl)-6-chloro-2-fluoro-N-(2-fluoro-3-(4-fluorophenyl)-3-hydroxybutyl-4,4,4-d3)benzamide] |  | 3.1 | 
Nc1nc2cc(-c3ccc(Cl)c(C(=O)NCC(F)(F)C(O)c4ccc(Cl)c(Cl)n4)c3F)ccn2n1 (single isomer, unassigned) [Example 271] |  | 1.8 | 
CCC(O)(c1ccc(F)cc1)C(F)(F)CNC(=O)c1c(Cl)ccc(-c2ccn3nc(N)nc3c2)c1F (single isomer, unassigned) [Example 313, 3-(2-amino-[1,2,4]triazolo[1,5-a]pyridin-7-yl)-6-chloro-N-(2,2-difluoro-3-(4-fluorophenyl)-3-hydroxypentyl)-2-fluorobenzamide] |  | 3.8 | 
CCC(O)(c1ccc(F)cc1)C(F)(F)CNC(=O)c1c(Cl)ccc(-c2ccn3nc(N)nc3c2)c1F (single isomer, unassigned) [Example 314, 3-(2-amino-[1,2,4]triazolo[1,5-a]pyridin-7-yl)-6-chloro-N-(2,2-difluoro-3-(4-fluorophenyl)-3-hydroxypentyl)-2-fluorobenzamide] |  | 17 | 
Cc1c(F)cc(-c2ccn3nc(N)nc3c2)cc1C(=O)NCCC(C)(O)c1ccccc1 (stereo not drawn) [Example 96, 5-(2-amino-[1,2,4]triazolo[1,5-a]pyridin-7-yl)-3-fluoro-N-(3-hydroxy-3-phenylbutyl)-2-methylbenzamide] | 39 |  | 
COc1ncc(-c2ccn3nc(N)nc3c2)cc1C(=O)NC(C)CCc1ccccc1 (stereo not drawn) [Example 101] |  |  | IC50 [3]: 82 nM
CCc1ccc(-c2ccn3nc(N)nc3c2)c(F)c1C(=O)NCC(F)(F)C(O)c1ccc(F)cc1 (stereo not drawn) [Example 121, 3-(2-amino-[1,2,4]triazolo[1,5-a]pyridin-7-yl)-N-(2,2-difluoro-3-(4-fluorophenyl)-3-hydroxypropyl)-6-ethyl-2-fluorobenzamide] | 1 |  | 
CC(CCNC(=O)c1cc(-c2ccn3nc(N)nc3c2)cnc1Cl)c1ccccc1 (stereo not drawn) [Example 170] |  |  | IC50 [3]: 48 nM
C[C@](O)(c1ccc(F)cc1)[C@@H](F)CNC(=O)c1c(Cl)ccc(-c2ccn3nc(N)nc3c2)c1F [Example 209, 3-(2-amino-[1,2,4]triazolo[1,5-a]pyridin-7-yl)-6-chloro-2-fluoro-N-((2S,3S)-2-fluoro-3-(4-fluorophenyl)-3-hydroxybutyl)benzamide] | 80 |  | 
C[C@@](O)(c1ccc(F)cc1)[C@H](F)CNC(=O)c1c(Cl)ccc(-c2ccn3nc(N)nc3c2)c1F [Example 210, 3-(2-amino-[1,2,4]triazolo[1,5-a]pyridin-7-yl)-6-chloro-2-fluoro-N-((2R,3R)-2-fluoro-3-(4-fluorophenyl)-3-hydroxybutyl)benzamide] | 2.5 |  | 
C[C@@](O)(c1ccc(F)cc1)[C@@H](F)CNC(=O)c1c(Cl)ccc(-c2ccn3nc(N)nc3c2)c1F [Example 211, 3-(2-amino-[1,2,4]triazolo[1,5-a]pyridin-7-yl)-6-chloro-2-fluoro-N-((2S,3R)-2-fluoro-3-(4-fluorophenyl)-3-hydroxybutyl)benzamide] | 45 |  | 
C[C@](O)(c1ccc(F)cc1)[C@H](F)CNC(=O)c1c(Cl)ccc(-c2ccn3nc(N)nc3c2)c1F [Example 212, 3-(2-amino-[1,2,4]triazolo[1,5-a]pyridin-7-yl)-6-chloro-2-fluoro-N-((2R,3S)-2-fluoro-3-(4-fluorophenyl)-3-hydroxybutyl)benzamide] | 0.8 |  | 
[2H]C([2H])([2H])c1ccc(-c2ccn3nc(N)nc3c2)c(F)c1C(=O)NC[C@H](F)[C@@](C)(O)c1ccc(F)cc1 [Example 213, 3-(2-amino-[1,2,4]triazolo[1,5-a]pyridin-7-yl)-2-fluoro-N-((2S,3S)-2-fluoro-3-(4-flurophenyl)-3-hydroxybutyl)-6-(methyl-d3)benzamide] | 13 |  | 
[2H]C([2H])([2H])c1ccc(-c2ccn3nc(N)nc3c2)c(F)c1C(=O)NC[C@@H](F)[C@](C)(O)c1ccc(F)cc1 [Example 214, 3-(2-amino-[1,2,4]triazolo[1,5-a]pyridin-7-yl)-2-fluoro-N-((2R,3R)-2-fluoro-3-(4-fluorophenyl)-3-hydroxybutyl)-6-(methyl-d3)benzamide] | 0.9 |  | 
Cc1ccc(-c2ccn3nc(N)nc3c2)c(F)c1C(=O)NCC(C)(O)C(=O)c1ccc(F)cc1 (stereo not drawn) [Example 279, 3-(2-amino-[1,2,4]triazolo[1,5-a]pyridin-7-yl)-2-fluoro-N-(3-(4-fluorophenyl)-2-hydroxy-2-methyl-3-oxopropyl)-6-methylbenzamide] | 8.3 |  | IC50 (Homo sapiens, Table 22, compounds of the present invention, read-out: pMLKL IC50): 8.3 nM
